# Experimental data taken from patent US20260263505A1, “Uses of Compositions Comprising a Prebiotic Component” (Mead Johnson Nutrition Company, priority 2021, published 2026).
# System: male Sprague Dawley rats
# Test: Telemetric sleep/wake recording at baseline and after inescapable tail shock stress, following early life diet (P21-P51)
# Type: in vivo, rat
# Details: mean ± SEM
# From the text: The aim of this study was to investigate the extent to which early life dietary oligosaccharides and/or polydextrose (PDX+GOS) modulate sleep and protect sleep architecture following stress.
# Timed-pregnant female Sprague Dawley rats were purchased from Charles River Laboratories International, Inc., (Hollister, CA and Canada). Male pups were weaned at postnatal day 21 (P21) and randomised into one of five treatment groups (see Table 6 below). All rats were housed in a temperature-controlled recording room under a 12 hour light: dark cycle with food and water available ad libitum. Environmental conditions were regulated, and room temperature (24±2° C.), humidity (50±20% relative humidity), and lighting were monitored and recorded. Animals were inspected daily.
# All experimenters were blind to type of diet administered to each group. The diets were formulated by Mead Johnson Nutrition (MJN, Evansville IN) based on AlN-93G specifications to be isocaloric and have similar carbohydrate, protein, fat, vitamin and mineral levels. Experimental diets contained 7.0 g/kg galactooligosaccharides (GOS), 7.0 g/kg polydextrose (PDX) and/or 2.2 g/kg sialyllactose (SL). Diets were produced by Envigo (Indianapolis, IN), and ingredients were supplied by: PDX (Danisco, Terre Haute, IN), GOS (Friesland Campina, Zwolle, The Netherlands) and SL (SAL-10; Arla Foods Ingredients, Aarhus, Denmark).
# A total of n=105 male Sprague Dawley rats were used in this study with a subset of animals (n=40) used for sleep/wake analysis. Upon weaning (P21), rats were randomised into one of five treatment groups, based upon diet and exposure to a stressor, as follows:
# The experimental protocol consisted of two phases a diet manipulation phase and a sleep-stressor phase. During the diet manipulation phase, rat weanlings were randomised to either the control diet or one of the three formulated diets. Rats were provided these diets from age P21 to P51, after which all animals were given standard chow. During this diet-manipulation phase, body weights were recorded twice per week and food consumption determined for weekly intervals.
# The second phase of the protocol consisted of telemetric recordings, exposure to stressor, and behavioural assessment. Telemeters were implanted on P64 and undisturbed baseline recordings obtained on P84.
# Rats in groups 2 to 5 were exposed to inescapable shock stress (uncontrollable stress paradigm) on P85 using previously published protocols (Greenwood et al., Behav Brain Res. 2012 Aug. 1; 233(2): 314-321). Briefly, rats were restrained in Plexiglass tubes and received ~100, 5 s tail shocks (1.5 mA) on a […] variable-interval schedule. Stress protocols were conducted during the beginning of the light period. After the end of the stress protocol, rats were returned to their home cages. Home-cage control animals (no stress) remained undisturbed during this period.
# [1] = Dark period (ZT13-24), Baseline
# [2] = Dark period (ZT13-24), Post-stress
# [3] = Light period (ZT5-12), Baseline
# [4] = Light period (ZT5-12), Post-stress
substance,measurement,setting,value
sialyllactose [SL],NREMS bout duration,[1],1.3 ± 0.1 min
same,NREMS bouts,[1],11.9 ± 1.1 number/h
same,NREMS duration,[1],30.1 ± 3.0 % recording time
same,REMS bout duration,[1],0.9 ± 0.1 min
same,REMS bouts,[1],2.8 ± 0.4 number/h
same,REMS duration,[1],6.0 ± 0.9 % recording time
same,Wake bout duration,[1],10.9 ± 2.2 min
same,Wake bouts,[1],8.3 ± 0.6 number/h
same,Wake duration,[1],63.9 ± 3.8 % recording time
same,NREMS bout duration,[2],1.5 ± 0.1 min
same,NREMS bouts,[2],17.7 ± 1.3 number/h
same,NREMS duration,[2],[43.7 ± 1.7**] % recording time
same,REMS bout duration,[2],[1.3 ± 0.1*] min
same,REMS bouts,[2],[5.5 ± 0.5**] number/h
same,REMS duration,[2],[12.3 ± 1.0**] % recording time
same,Wake bout duration,[2],4.1 ± 0.8 min
same,Wake bouts,[2],10.4 ± 1.1 number/h
same,Wake duration,[2],[43.9 ± 2.4**] % recording time
same,NREMS bout duration,[3],1.5 ± 0.1 min
same,NREMS bouts,[3],20.1 ± 1.5 number/h
same,NREMS duration,[3],51.0 ± 3.1 % recording time
same,REMS bout duration,[3],1.2 ± 0.1 min
same,REMS bouts,[3],5.3 ± 0.6 number/h
same,REMS duration,[3],12.6 ± 1.3 % recording time
same,Wake bout duration,[3],3.5 ± 1.1 min
same,Wake bouts,[3],10.1 ± 0.6 number/h
same,Wake duration,[3],36.4 ± 4.2 % recording time
same,NREMS bout duration,[4],2.1 ± 0.1 min
same,NREMS bouts,[4],16.8 ± 1.1 number/h
same,NREMS duration,[4],56.1 ± 2.1 % recording time
same,REMS bout duration,[4],1.6 ± 0.0 min
same,REMS bouts,[4],5.3 ± 0.7 number/h
same,REMS duration,[4],14.4 ± 1.7 % recording time
same,Wake bout duration,[4],3.0 ± 0.7 min
same,Wake bouts,[4],7.8 ± 0.6 number/h
same,Wake duration,[4],29.5 ± 3.5 % recording time
